Laboratory results taken from US5614370A, “Assay to identify human C5a antagonists and agonists” (Merck & Co., Inc., priority 1994, dated 1997).
Entries after “also recorded” stand apart in the source; their conditions may differ. Read-outs that look alike come from different tables or passages of the source. Non-standard residues stand in square brackets, D forms with d. Residues, ends and D or L forms follow the SMILES beside them. 1Nal = N[C@@H](Cc1cccc2ccccc12)C(=O)O; NMeF = CN[C@@H](Cc1ccccc1)C(=O)O; Cha = N[C@@H](CC1CCCCC1)C(=O)O; dCha = N[C@H](CC1CCCCC1)C(=O)O

What was measured:
C5a receptor = molecular target: T1, C5a receptor (Homo sapiens, UniProt P21730); assay: Competition binding against 125I-labeled intact C5a on human neutrophil (PMN) membranes
T1 construct: followed by a 20 μL aliquot of neutrophil membrane; endogenous in cells
T1 sequence (P21730 1-350): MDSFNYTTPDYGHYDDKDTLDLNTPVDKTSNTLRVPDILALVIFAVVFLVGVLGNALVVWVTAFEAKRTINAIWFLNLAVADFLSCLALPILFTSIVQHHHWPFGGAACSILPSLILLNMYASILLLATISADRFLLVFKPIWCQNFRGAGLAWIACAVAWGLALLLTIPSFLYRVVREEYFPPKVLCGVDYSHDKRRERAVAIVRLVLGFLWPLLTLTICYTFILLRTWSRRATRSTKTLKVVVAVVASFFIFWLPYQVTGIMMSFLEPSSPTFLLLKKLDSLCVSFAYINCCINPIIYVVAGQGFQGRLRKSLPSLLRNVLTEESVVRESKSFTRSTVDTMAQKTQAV
Text: The affinity of these peptides is shown, for example, by radiolabeling intact C5a, and using the unlabeled peptide to compete the labeled C5a from C5a receptor binding sites on cellular membranes. Preparations of polymorphonuclear leukocytes (PMN's) are known to express the C5a receptor, (inhibition of the chemotactic response to C5a of this type of cell is one desirable utility for compounds identified by the instant assay). One method for preparing these membranes is described by Rollins, T. E. et al., [J. Biol. Chem. 264:520-526 (1988); see also U.S. Pat. No. 5,177,190, herein incorporated by reference as a method for isolating and purifying C5a receptor]. Briefly, this involves isolating PMN's in large quantity, disrupting these cells and obtaining the membrane fraction by centrifugation. Protein assay of the membrane preparation allows for standardization of the amount of protein added in any set of membrane binding experiments.
In FIG. 1, unlabeled C013 is used to compete with ^125 I-labeled C5a. […] In FIG. 2, the C013 is ^125 I labeled. Unlabeled C5a and unlabeled C013 are each used to compete the labeled C013 from C5a binding sites on the membranes. […] In FIG. 3a, ^125 I-C5a is competed from its binding site by unlabeled C064 and unlabeled, natural C5a (as opposed to recombinant C5a, which, however, may also obviously may be used for these purposes). […] In FIG. 3b, the inverse experiment is shown, wherein ^125 I-C064 is displaced by unlabeled C064 and unlabeled nC5a.
Hexapeptides within this class differing only at position X have similar affinities for the C5a receptor. As measured in competition binding experiments against ^125 I-C5a on human neutrophil membranes their IC50 's varied by only a factor of 3, from 25 to 80 nM (Table II):
^2 Binding experiments were carried out with human neutrophil
Binding is initiated by an addition of 20 μL of PMN membrane (typically 0.5 μg of protein) to each tube. After incubation for 90 min. at room temperature 2 ml of 0.05 M HEPES, pH 7.2, containing 0.5% BSA are added to the tube, the contents vortexed and filtered over a Whatman GF/C filter which has been soaked in 0.3% polyethylenimine. An additional 2 ml of buffer are added to the tube and used to wash the filter. All of the test samples are dissolved in DMSO, another water miscible organic solvent, or in an aqueous solvent. Non-specific background was determined by inclusion of a 100-fold excess of unlabeled C5a.
The percent inhibition is calculated according to the following formula: [formula]
Iodination of C5a was carded out with the use of chloramine T. (Rollins, T.E., and Springer, M.S. (1985) J. Biol. Chem. 260, 7157-7160). […] Concentrations of C5a were determined by amino acid analysis and by RIA (Amersham Corp.). Membranes were prepared from human PMN as described by Rollins, T.E., Sciliano, S and Springer, M.S., J. Biol Chem 264 520-526 (1988).

human neutrophils = assay: Ligand induced Ca2+ flux (Indo-1 fluorescence); type: cell-based; settings: FIG. 5B
Method: FIG. 5A and 5B. Degranulation and Ca^2+ responses to the hexapeptides. […] The ED50 's for the degranulation are: C5a, 0.5 nM; C028, 0.2 μM; C026, 1 μM. C5a, maximally, released 57% of the total cellular content of MPO. The ability of these molecules to elicite a Ca^2+ -flux is shown in B. The concentrations used for C028 (10 μM), C026 (10 μM), C061 (100 μM) are those which produce a maximal flux. A saturating concentration was also used for C5a (1 nM).
Ligand induced Ca^2+ fluxes were measured by following the change in Indo-1 induced fluorescence on a FACS analyzer as previously described (Van Riper, G., Siciliano, S. J., Fischer, P. A., Meurer, R., Springer, M. S. and Rosen, H. (1993) J. Exp. Med. 177, 851-856.).
FIG. 5B compares the maximal effects of each peptide (10-100 μM) with the response induced by C5a (1 nM).

[1] = Table II, human neutrophil membranes, competition against 125I-C5a, read-out: Binding IC50
[2] = maximal effects, peptide 10-100 μM vs 1 nM C5a

Molecule: CC(C)C[C@H](NC(=O)[C@H](CC1CCCCC1)NC(=O)[C@H](CC1CCCCC1)NC(=O)[C@H](C)NC(=O)[C@H](CCCCN)NC(=O)[C@H](Cc1ccccc1)NC(=O)[C@@H](N)Cc1ccc(O)cc1)C(=O)N[C@H](Cc1ccccc1)C(=O)N[C@@H](CCCNC(=N)N)C(=O)O [C009, Tyr Phe Lys Ala Cha Cha Leu dPhe Arg] (H-YFKA[Cha][Cha]L[dF]R-OH)
- Ki (C5a receptor): 8 nM

Molecule: CN[C@@H](Cc1ccccc1)C(=O)N[C@@H](CCCCN)C(=O)N1CCC[C@H]1C(=O)N[C@H](CC1CCCCC1)C(=O)N[C@@H](Cc1ccccc1)C(=O)N[C@H](CCCNC(=N)N)C(=O)O [C026, NMeF--K--P-dCha-F-dR] (H-[NMeF]KP[dCha]F[dR]-OH)
- IC50 (C5a receptor; [1]): 50 nM
- concentration which produces a maximal Ca2+ flux (human neutrophils): 10 µM
- Ca2+ response relative to C028 and C5a (human neutrophils; [2]): 50%

Molecule: CN[C@@H](Cc1ccccc1)C(=O)N[C@@H](CCCCN)C(=O)N1CCC[C@H]1C(=O)N[C@H](CC1CCCCC1)C(=O)N[C@@H](CC1CCCCC1)C(=O)N[C@H](CCCNC(=N)N)C(=O)O [C028, MePhe Lys Pro dCha Cha dArg] (H-[NMeF]KP[dCha][Cha][dR]-OH)
- IC50 (C5a receptor; [1]): 25 nM
- concentration which produces a maximal Ca2+ flux (human neutrophils): 10 µM
- Ca2+ response in words (human neutrophils; [2]): comparable elevations in Ca^2+ level

Molecule: CN[C@@H](Cc1ccccc1)C(=O)N[C@@H](CCCCN)C(=O)N1CCC[C@H]1C(=O)N[C@H](CC1CCCCC1)C(=O)N[C@@H](Cc1cccc2ccccc12)C(=O)N[C@H](CCCNC(=N)N)C(=O)O [C061] (H-[NMeF]KP[dCha][1Nal][dR]-OH)
- IC50 (C5a receptor; [1]): 80 nM
- concentration which produces a maximal Ca2+ flux (human neutrophils): 100 µM
- Ca2+ response in words (human neutrophils; [2]): only a very small increase in intracellular Ca^2+ levels; also recorded: small increase in the level of intracellular Ca^2+

Molecule: CN[C@@H](Cc1ccccc1)C(=O)N[C@@H](CCCCN)C(=O)N1CCC[C@H]1C(=O)N[C@H](CC1CCCCC1)C(=O)N[C@@H](Cc1c[nH]c2ccccc12)C(=O)N[C@H](CCCNC(=N)N)C(=O)O [C089]
- binding affinity in words (C5a receptor): excellent ability to inhibit C5a binding
- Ca2+ response in words (human neutrophils; [2]): fails to stimulate a detectable change in Ca^2+ level

B1: C5a: 74 amino acid protein derived from the fifth component of serum complement during complement activation (protein, UniProt P01031 678-751, looked up)
C5a anaphylatoxin: TLQKKIEEIAAKYKHSVVKKCCYDGACVNNDETCEQRAARISLGPRCIKAFTECCVVASQLRANISHKDMQLGR
modifications: C5a anaphylatoxin
- IC50 (C5a receptor; [1]): 0.03 nM
- IC50 (C5a receptor; labeled ligand 125I-C5a, read-out: IC50 exhibited by the unlabeled ligand): 0.066 nM
- Ca2+ response in words (human neutrophils; [2]): comparable elevations in Ca^2+ level
